Laboratory results published in publication PMC8948245, “Mechanistic insights into the regulation of plant phosphate homeostasis by the rice SPX2 – PHR2 complex” (Nature Communications, 2022).
Substitutions are numbered along the chain they refer to. In names and notes the source's numbering stands.

Columns and labels:
OsSPX4 = molecular target: T1, OsSPX4 (Oryza sativa, UniProt Q10B79); test: analytical SEC (profile shift with InsP6); format: binding; conditions: pH 8.0, 150 mM NaCl
T1 construct: gene SPX4; full-length, N-terminal 6xHis tag removed by drICE protease; E. coli BL21(DE3)
T1 sequence (Q10B79 1-320): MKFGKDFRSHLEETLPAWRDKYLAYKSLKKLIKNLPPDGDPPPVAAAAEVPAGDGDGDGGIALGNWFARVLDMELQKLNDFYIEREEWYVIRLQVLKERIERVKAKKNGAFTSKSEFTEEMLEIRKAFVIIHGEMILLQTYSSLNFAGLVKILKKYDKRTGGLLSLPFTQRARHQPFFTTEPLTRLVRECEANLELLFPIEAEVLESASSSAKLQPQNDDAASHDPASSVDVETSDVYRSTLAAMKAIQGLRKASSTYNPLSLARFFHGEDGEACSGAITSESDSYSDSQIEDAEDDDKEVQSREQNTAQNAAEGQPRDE

AtSPX2 = molecular target: T2, AtSPX2 (Arabidopsis thaliana, UniProt O48781); test: analytical SEC (profile shift with InsP6); format: binding; conditions: pH 8.0, 150 mM NaCl
T2 construct: gene SPX2; full-length, N-terminal 6xHis tag removed by drICE protease; E. coli BL21(DE3)
T2 sequence (O48781 1-287): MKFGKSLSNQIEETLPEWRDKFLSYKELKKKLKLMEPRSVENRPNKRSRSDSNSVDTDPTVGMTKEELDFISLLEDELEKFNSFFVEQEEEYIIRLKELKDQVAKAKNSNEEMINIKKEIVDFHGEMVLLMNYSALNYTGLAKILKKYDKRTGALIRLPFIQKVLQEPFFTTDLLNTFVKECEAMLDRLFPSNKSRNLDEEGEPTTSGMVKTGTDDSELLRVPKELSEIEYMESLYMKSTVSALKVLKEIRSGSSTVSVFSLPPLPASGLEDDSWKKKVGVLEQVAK

[1] = molecular target: T3, SPX2^1–280/PHR2^225–362 (rice) (Oryza sativa, UniProt Q6Z784, Y25A); test: co-expression coupled Ni-NTA pull-down (InsP6-dependent SPX2-PHR2 association); format: biochemical; conditions: 1 mM InsP6, pH 8.0, 150 mM NaCl; indirect read-out
T3 construct: untagged full-length SPX2 (residues 1-280) co-expressed with 8xHis-tagged PHR2 225-362 in E. coli; 2:2 complex; with Protein PHOSPHATE STARVATION RESPONSE 2

[2] = molecular target: T4, SPX2^1–280/PHR2^225–362 (rice) (Oryza sativa, UniProt Q6Z784, Y25F); test: as above; format: biochemical; conditions: 1 mM InsP6, pH 8.0, 150 mM NaCl; indirect read-out
T4 construct: untagged full-length SPX2 (residues 1-280) co-expressed with 8xHis-tagged PHR2 225-362 in E. coli; 2:2 complex; with Protein PHOSPHATE STARVATION RESPONSE 2

[3] = molecular target: T5, SPX2^1–280/PHR2^225–362 (rice) (Oryza sativa, UniProt Q6Z784, K143A/K147A); test: as above; format: biochemical; conditions: 1 mM InsP6, pH 8.0, 150 mM NaCl; indirect read-out
T5 construct: untagged full-length SPX2 (residues 1-280) co-expressed with 8xHis-tagged PHR2 225-362 in E. coli; 2:2 complex; with Protein PHOSPHATE STARVATION RESPONSE 2

AtSPX4 = molecular target: T6, AtSPX4 (Arabidopsis thaliana, UniProt Q94A21); test: analytical SEC (profile shift with InsP6); format: binding; conditions: pH 8.0, 150 mM NaCl
T6 construct: gene SPX4; full-length, N-terminal 6xHis tag removed by drICE protease; E. coli BL21(DE3)
T6 sequence (Q94A21 1-318): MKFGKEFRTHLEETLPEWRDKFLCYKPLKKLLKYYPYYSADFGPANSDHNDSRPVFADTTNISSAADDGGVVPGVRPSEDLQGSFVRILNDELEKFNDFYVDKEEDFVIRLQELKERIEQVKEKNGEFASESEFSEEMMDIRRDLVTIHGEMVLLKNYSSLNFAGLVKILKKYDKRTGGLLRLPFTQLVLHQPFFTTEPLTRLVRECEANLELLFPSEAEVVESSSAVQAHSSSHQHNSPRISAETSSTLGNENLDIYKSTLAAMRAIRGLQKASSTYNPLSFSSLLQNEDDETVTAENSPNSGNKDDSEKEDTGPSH

OsSPX2^1-267/Δ47-64 = molecular target: T7, OsSPX2^1-267/Δ47-64 (Oryza sativa, UniProt Q6Z784, DEL47-64); test: analytical SEC and AUC (change of oligomeric state); format: binding; conditions: AUC with or without 1 mM InsP6, pH 8.0, 150 mM NaCl, 18 °C; no PHR2
T7 construct: gene SPX2; residues 1-267 lacking 47-64, C-terminal 8xHis tag, excess SPX2 separated from co-expressed PHR2 231-362; E. coli; monomer with InsP6
T7 sequence (Q6Z784 with tags, fused parts or gaps DEL47-64): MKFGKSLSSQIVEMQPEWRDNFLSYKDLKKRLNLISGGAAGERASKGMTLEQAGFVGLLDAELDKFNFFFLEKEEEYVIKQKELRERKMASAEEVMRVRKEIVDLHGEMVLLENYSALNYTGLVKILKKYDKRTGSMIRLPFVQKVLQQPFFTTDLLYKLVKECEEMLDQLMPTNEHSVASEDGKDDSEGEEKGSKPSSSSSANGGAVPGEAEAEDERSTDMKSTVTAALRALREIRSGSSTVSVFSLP

OsSPX1 = molecular target: T8, OsSPX1 (Oryza sativa, UniProt Q69XJ0); test: analytical SEC (profile shift with InsP6); format: binding; conditions: pH 8.0, 150 mM NaCl
T8 construct: gene SPX1; full-length, N-terminal 6xHis tag removed by drICE protease; E. coli BL21(DE3)
T8 sequence (Q69XJ0 1-295): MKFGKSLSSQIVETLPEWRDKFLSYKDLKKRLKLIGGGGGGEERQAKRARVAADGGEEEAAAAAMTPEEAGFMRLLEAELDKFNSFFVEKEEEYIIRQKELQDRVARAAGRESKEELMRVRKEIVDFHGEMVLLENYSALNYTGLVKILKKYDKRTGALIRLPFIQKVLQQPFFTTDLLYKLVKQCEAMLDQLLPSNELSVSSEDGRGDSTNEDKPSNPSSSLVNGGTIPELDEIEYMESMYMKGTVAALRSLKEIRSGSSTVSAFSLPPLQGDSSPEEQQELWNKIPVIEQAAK

[4] = molecular target: T9, SPX2^1–280/PHR2^225–362 (rice) (Oryza sativa, UniProt Q6Z784, L28A); test: co-expression coupled Ni-NTA pull-down (InsP6-dependent SPX2-PHR2 association); format: biochemical; conditions: 1 mM InsP6, pH 8.0, 150 mM NaCl; indirect read-out
T9 construct: untagged full-length SPX2 (residues 1-280) co-expressed with 8xHis-tagged PHR2 225-362 in E. coli; 2:2 complex; with Protein PHOSPHATE STARVATION RESPONSE 2

[5] = molecular target: T10, SPX2^1–280/PHR2^225–362 (rice) (Oryza sativa, UniProt Q6Z784, K29A); test: as above; format: biochemical; conditions: 1 mM InsP6, pH 8.0, 150 mM NaCl; indirect read-out
T10 construct: untagged full-length SPX2 (residues 1-280) co-expressed with 8xHis-tagged PHR2 225-362 in E. coli; 2:2 complex; with Protein PHOSPHATE STARVATION RESPONSE 2

[6] = molecular target: T11, His-tagged PHR2^225–362 (rice PHR2, MYB domain and CC domain) (rice (Oryza sativa), UniProt Q6Z156 225-362); test: AUC; sedimentation velocity of the purified SPX2/PHR2 complex, 25 mM Tris-HCl pH 8.0, 150 mM NaCl, 1 mM InsP6, 18 °C, 0.7 mg ml^-1; conditions: both partners purified
T11 construct: pET21b, C-terminal 8×His tag; codon-optimised synthetic cDNA; also called PHR2-His; source: E. coli BL21(DE3), co-expressed with SPX2; not shown: 8×His, C-terminal, kept

[7] = molecular target: the molecule itself; test: cross-linking; mixture of PHR2^225–362-His complexes with SPX2-flag homodimer and SPX2/SPX2-flag heterodimer from the tandem pull-down; about 30 μM with 200 μM M2M, room temperature, 30 min; SDS-PAGE with or without 100 mM DTT
[8] = molecular target: the molecule itself; test: cross-linking; about 30 μM purified SPX2/PHR2^225–362 complex with 200 μM M2M, room temperature, 30 min, 25 mM Tris–HCl pH 8.0, 150 mM NaCl, 1 mM InsP6; SDS-PAGE with or without 100 mM DTT
[9] = molecular target: the molecule itself; test: crystal structure; mH2A1.1^181–366-tagged SPX2^1-202/∆47-59 / InsP6 / PHR2^225–362 ternary complex, 10 mM InsP6 supplied, hanging drop, 18 °C, 3.1 Å
PHR2 MYB-CC K292D = PHR2 MYB-CC K292D (Oryza sativa, UniProt B8B5N8 225-362, K292D); test: EMSA; EMSA: 10 nM FAM-DNA, 0.3375-0.8 uM PHR2, 25 mM Tris-HCl pH 8.0, 150 mM NaCl, 5 mM DTT, 10% glycerol, 200 ng/ml heparin, 4 C, 30 min; crystal: 13% PEG 3350, 0.1; conditions: protein: recombinant; tags: C-terminal 8xHis; chain copies: 2; blunt, 30 bp
[10] = molecular target: PHR2 MYB domain (crystal) (Oryza sativa, UniProt B8B5N8 180-313); test: X-ray crystallography, 2.7 A; EMSA: 10 nM FAM-DNA, 0.3375-0.8 uM PHR2, 25 mM Tris-HCl pH 8.0, 150 mM NaCl, 5 mM DTT, 10% glycerol, 200 ng/ml heparin, 4 C, 30 min; crystal: 13% PEG 3350, 0.1; conditions: protein: recombinant; tags: C-terminal 8xHis (general PHR2 cloning); chain copies: 2; 5' overhang 1 nt on each strand, 15 bp
Chain of PHR2 MYB domain (crystal) (B8B5N8 180-313): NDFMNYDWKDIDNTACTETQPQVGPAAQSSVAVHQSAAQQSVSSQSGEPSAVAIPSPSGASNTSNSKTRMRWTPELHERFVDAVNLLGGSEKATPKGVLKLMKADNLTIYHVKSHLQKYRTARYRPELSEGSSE

T11 sequence (Q6Z156 225-362): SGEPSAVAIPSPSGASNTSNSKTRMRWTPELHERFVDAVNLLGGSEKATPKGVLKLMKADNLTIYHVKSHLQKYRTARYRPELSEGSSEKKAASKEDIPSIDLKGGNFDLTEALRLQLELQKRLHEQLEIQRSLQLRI
T10 sequence (Q6Z784 whole entry K29A, the tested form may be a part): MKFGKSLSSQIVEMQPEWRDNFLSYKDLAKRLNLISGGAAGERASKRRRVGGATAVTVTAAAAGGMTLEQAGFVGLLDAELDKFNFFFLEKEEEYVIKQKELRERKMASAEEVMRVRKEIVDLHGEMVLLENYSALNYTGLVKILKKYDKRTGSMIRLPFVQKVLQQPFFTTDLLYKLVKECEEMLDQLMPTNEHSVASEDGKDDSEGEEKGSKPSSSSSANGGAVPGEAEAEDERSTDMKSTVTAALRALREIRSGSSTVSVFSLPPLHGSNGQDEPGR
T10 sequence (Q6Z156 225-362 partner): as the sequence (Q6Z156 225-362) above
T3 sequence (Q6Z784 whole entry Y25A, the tested form may be a part): as the sequence (Q6Z784 whole entry K29A, the tested form may be a part) above, with Y25A, A29K counted along it
T3 sequence (Q6Z156 225-362 partner): as the sequence (Q6Z156 225-362) above
T4 sequence (Q6Z784 whole entry Y25F, the tested form may be a part): as the sequence (Q6Z784 whole entry K29A, the tested form may be a part) above, with Y25F, A29K counted along it
T4 sequence (Q6Z156 225-362 partner): as the sequence (Q6Z156 225-362) above
Chain of PHR2 MYB-CC K292D (B8B5N8 225-362 K292D): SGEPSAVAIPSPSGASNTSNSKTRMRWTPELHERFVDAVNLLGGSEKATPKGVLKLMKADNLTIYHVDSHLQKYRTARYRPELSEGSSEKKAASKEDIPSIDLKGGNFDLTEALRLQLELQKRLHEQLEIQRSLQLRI
T5 sequence (Q6Z784 whole entry K143A/K147A, the tested form may be a part): as the sequence (Q6Z784 whole entry K29A, the tested form may be a part) above, with A29K, K143A, K147A counted along it
T5 sequence (Q6Z156 225-362 partner): as the sequence (Q6Z156 225-362) above
T9 sequence (Q6Z784 whole entry L28A, the tested form may be a part): as the sequence (Q6Z784 whole entry K29A, the tested form may be a part) above, with L28A, A29K counted along it
T9 sequence (Q6Z156 225-362 partner): as the sequence (Q6Z156 225-362) above

O=P(O)(O)O[C@H]1[C@H](OP(=O)(O)O)[C@@H](OP(=O)(O)O)[C@H](OP(=O)(O)O)[C@@H](OP(=O)(O)O)[C@H]1OP(=O)(O)O [InsP6]
analytical SEC (profile shift with InsP6) (OsSPX4): their SEC profiles differ strongly in the presence of InsP6
analytical SEC (profile shift with InsP6) (AtSPX2): their SEC profiles differ strongly in the presence of InsP6
co-expression coupled Ni-NTA pull-down (InsP6-dependent SPX2-PHR2 association) [1]: strongly reduced or abolished by the Y25F, Y25A, L28A, K29A, or K143A/K147A substitutions of SPX2
co-expression coupled Ni-NTA pull-down (InsP6-dependent SPX2-PHR2 association) [2]: strongly reduced or abolished by the Y25F, Y25A, L28A, K29A, or K143A/K147A substitutions of SPX2
co-expression coupled Ni-NTA pull-down (InsP6-dependent SPX2-PHR2 association) [3]: strongly reduced or abolished by the Y25F, Y25A, L28A, K29A, or K143A/K147A substitutions of SPX2
analytical SEC (profile shift with InsP6) (AtSPX4): their SEC profiles differ strongly in the presence of InsP6
analytical SEC and AUC (change of oligomeric state) (OsSPX2^1-267/Δ47-64): InsP6 binding appears to stabilize the domain into a monomeric state
analytical SEC (profile shift with InsP6) (OsSPX1): their SEC profiles differ strongly in the presence of InsP6
co-expression coupled Ni-NTA pull-down (InsP6-dependent SPX2-PHR2 association) [4]: strongly reduced or abolished by the Y25F, Y25A, L28A, K29A, or K143A/K147A substitutions of SPX2
co-expression coupled Ni-NTA pull-down (InsP6-dependent SPX2-PHR2 association) [5]: strongly reduced or abolished by the Y25F, Y25A, L28A, K29A, or K143A/K147A substitutions of SPX2

B1: full-length rice SPX2 (SPX2^1–280), untagged (natural protein, rice (Oryza sativa), UniProt Q6Z784 1-280, looked up)
chain: MKFGKSLSSQIVEMQPEWRDNFLSYKDLKKRLNLISGGAAGERASKRRRVGGATAVTVTAAAAGGMTLEQAGFVGLLDAELDKFNFFFLEKEEEYVIKQKELRERKMASAEEVMRVRKEIVDLHGEMVLLENYSALNYTGLVKILKKYDKRTGSMIRLPFVQKVLQQPFFTTDLLYKLVKECEEMLDQLMPTNEHSVASEDGKDDSEGEEKGSKPSSSSSANGGAVPGEAEAEDERSTDMKSTVTAALRALREIRSGSSTVSVFSLPPLHGSNGQDEPGR
notes: rice (Oryza sativa) SPX2 (OsSPX2), full length, residues 1-280; pBB75 vector without any tag; also called OsSPX2; source: E. coli BL21(DE3), co-expressed with PHR2
stoichiometry N [6]: 1 SPX2:PHR2 ratio (2:2)

B2: SPX2^K106C-flag (natural protein, rice (Oryza sativa), UniProt Q6Z784 1-280, looked up)
chain: B1 chain with K106C
notes: rice (Oryza sativa) SPX2, residues 1-280, K106C; source: Ni-NTA pull-down and flag pull-down in tandem; not shown: 3×flag, N-terminal, kept
binding result [7]: binds

B3: SPX2^1-280_K106C (natural protein, rice (Oryza sativa), UniProt Q6Z784 1-280, looked up)
chain: B1 chain with K106C
notes: rice (Oryza sativa) SPX2, residues 1-280, K106C; also called SPX2^K106C
binding result [8]: binds

B4: mH2A1.1^181–366-tagged SPX2^1-202/∆47-59 (domain or fragment, rice (Oryza sativa), UniProt Q6Z784 1-202, looked up)
chain: MKFGKSLSSQIVEMQPEWRDNFLSYKDLKKRLNLISGGAAGERASKAAAAGGMTLEQAGFVGLLDAELDKFNFFFLEKEEEYVIKQKELRERKMASAEEVMRVRKEIVDLHGEMVLLENYSALNYTGLVKILKKYDKRTGSMIRLPFVQKVLQQPFFTTDLLYKLVKECEEMLDQLMPTNEHSVASEDG
notes: rice (Oryza sativa) SPX2, residues 1-202 with residues 47-59 (R47-T59) deleted; also called crystallized construct
stoichiometry N [9]: 2
stoichiometry N [6]: 1 SPX2:PHR2 ratio (2:2)

B5: FAM P1BS EMSA probe (dsDNA)
DNA 1: AAGCTTGAATATGCAATGGAATATGCTTAG
DNA 2: CTAAGCATATTCCATTGCATATTCAAGCTT
binding result (PHR2 MYB-CC K292D): no binding

B6: P1BS crystal DNA (dsDNA)
DNA 1: GCTTGAGGATATCCGA
DNA 2: CTCGGATATCCTCAAG
binding result [10]: binds
